The record followed here is patent US12528815B2, “5-amino-8-(4-pyridyl)-[1,2,4]triazolo[4,3-c]pyrimidin-3-one compounds for use against cancer” (Nxera Pharma UK Limited, priority 2020, dated 2026).

Assay [1] has as its target T1, human adenosine A1 receptor (Homo sapiens, UniProt P30542).
T1 construct: expressed in transfected cells; host or cells: HEK293 cells infected with BacMam (the same paragraph also labels the preparation CHO-hA1)
T1 sequence (P30542 1-326): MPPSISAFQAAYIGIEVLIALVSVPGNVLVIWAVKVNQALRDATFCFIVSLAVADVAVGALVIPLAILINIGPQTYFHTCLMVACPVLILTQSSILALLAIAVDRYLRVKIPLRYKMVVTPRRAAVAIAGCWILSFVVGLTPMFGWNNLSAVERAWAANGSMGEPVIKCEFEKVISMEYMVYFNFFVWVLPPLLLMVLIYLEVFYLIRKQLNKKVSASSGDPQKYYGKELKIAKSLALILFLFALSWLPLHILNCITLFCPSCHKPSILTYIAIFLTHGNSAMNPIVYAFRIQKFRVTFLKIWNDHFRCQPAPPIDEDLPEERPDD
Description: Inhibition binding assay, human adenosine A1 receptor membranes, [3H]DPCPX. The note with it: 1 nM [3H]DPCPX, 25° C., 1 h; IC50 converted to Ki with Cheng-Prusoff; read-out: A1 pKi (converted). In short, it runs like this:
(§1)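 Membranes from BacMam-infected HEK293 cells (0.2 μg A2A, 1.4 μg A1) incubated 1 h at 25° C with test compound and 1 nM [3H]ZM241385 (A2A; 50 mM Tris-HCl pH 7.4) or [3H]DPCPX (A1; plus 100 mM NaCl, 10 mM MgCl2). Nonspecific: 1 μM CGS15943 or DPCPX. Filtration, scintillation; IC50 converted to Ki via Cheng-Prusoff.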

Assay [2] addresses T2, human adenosine A2A receptor (Homo sapiens, UniProt P29274).
T2 construct: expressed in transfected cells; host or cells: HEK293 cells infected with BacMam
The experiment in a line: Inhibition binding assay, human adenosine A2A receptor membranes, [3H]ZM241385. The note with it: 1 nM [3H]ZM241385, HEK293-hA2A membranes, 25° C., 1 h; IC50 converted to Ki with Cheng-Prusoff; read-out: A2A pKi (converted). In short, it runs like this:
as §1

T2 sequence (P29274 whole entry): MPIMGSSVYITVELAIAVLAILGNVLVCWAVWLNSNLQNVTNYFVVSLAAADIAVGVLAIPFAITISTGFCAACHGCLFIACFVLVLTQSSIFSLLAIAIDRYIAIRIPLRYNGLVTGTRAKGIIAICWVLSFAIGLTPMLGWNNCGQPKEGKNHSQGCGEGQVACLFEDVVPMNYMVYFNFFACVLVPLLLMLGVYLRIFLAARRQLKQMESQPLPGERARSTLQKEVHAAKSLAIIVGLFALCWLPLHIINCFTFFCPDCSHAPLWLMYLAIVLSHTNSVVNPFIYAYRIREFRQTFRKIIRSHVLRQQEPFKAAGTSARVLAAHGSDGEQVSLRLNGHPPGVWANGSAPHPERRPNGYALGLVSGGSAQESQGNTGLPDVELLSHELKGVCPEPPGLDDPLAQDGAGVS

Regarding `Cc1cc(N2CCC(NCCn3nc4c(-c5cc(C)nc(C)c5)c(-c5ccccc5)nc(N)n4c3=O)CC2)[nH]n1` [Example 1-95, 5-amino-8-(2,6-dimethyl-4-pyridyl)-2-[2-[[1-(3-methyl-1H-pyrazol-5-yl)-4-piperidyl]amino]ethyl]-7-phenyl-[1,2,4]triazolo[4,3-c]pyrimidin-3-one], the figures for the Ki in assay [1] and in assay [2] were over 2000 nM and 316 nM, respectively.
For the compound `Cc1cc(-c2c(-c3ccccc3)nc(N)n3c(=O)n(CCN4CCCCCC4c4cccn4C)nc23)cc(C)n1` (centres unmarked) [Example 1-96, 5-amino-8-(2,6-dimethyl-4-pyridyl)-2-[2-[2-(1-methylpyrrol-2-yl)azepan-1-yl]ethyl]-7-phenyl-[1,2,4]triazolo[4,3-c]pyrimidin-3-one], the Ki in assay [1] is 251 nM; in assay [2], 3.98 nM.
The corresponding values for `Cc1ccc(NC2CCN(CCn3nc4c(-c5cc(C)nc(C)c5)c(-c5ccccc5)nc(N)n4c3=O)CC2)nc1` [Example 1-97, 5-amino-8-(2,6-dimethyl-4-pyridyl)-2-[2-[4-[(5-methyl-2-pyridyl)amino]-1-piperidyl]ethyl]-7-phenyl-[1,2,4]triazolo[4,3-c]pyrimidin-3-one] are over 3980 nM and 63.1 nM.
The corresponding values for `CC1=NN(c2cccc(NCCn3nc4c(-c5cc(C)nc(C)c5)c(-c5ccccc5)nc(N)n4c3=O)c2)C(=O)C1` [Example 1-98, 5-amino-8-(2,6-dimethyl-4-pyridyl)-2-[2-[3-(3-methyl-5-oxo-4H-pyrazol-1-yl)anilino]ethyl]-7-phenyl-[1,2,4]triazolo[4,3-c]pyrimidin-3-one] are 1000 nM and 79.4 nM.
The corresponding values for `Cc1cc(-c2c(-c3ccccc3)nc(N)n3c(=O)n(C(CN)Cc4ccc(F)cc4F)nc23)cc(C)n1` (centres unmarked) [Example 1-100, 5-amino-2-[1-(aminomethyl)-2-(2,4-difluorophenyl)ethyl]-8-(2,6-dimethyl-4-pyridyl)-7-phenyl-[1,2,4]triazolo[4,3-c]pyrimidin-3-one] are 316 nM and 158 nM.
As for `Cc1cc(-c2c(-c3ccccc3)nc(N)n3c(=O)n(CC4(Cc5ccccc5)CCNCC4)nc23)cc(C)n1` [Example 1-102, 5-amino-2-[(4-benzyl-4-piperidyl)methyl]-8-(2,6-dimethyl-4-pyridyl)-7-phenyl-[1,2,4]triazolo[4,3-c]pyrimidin-3-one], the Ki in assay [1] was 12.6 nM; in assay [2], 0.501 nM.
On to `Cc1cc(-c2c(-c3ccccc3)nc(N)n3c(=O)n(C(CC4COCCN4)c4ccccc4)nc23)cc(C)n1` (centres unmarked) [Example 1-103, 5-amino-8-(2,6-dimethyl-4-pyridyl)-2-(2-morpholin-3-yl-1-phenyl-ethyl)-7-phenyl-[1,2,4]triazolo[4,3-c]pyrimidin-3-one], for which the Ki in assay [1] is 1000 nM; in assay [2], 15.8 nM.
Taken in the same sequence, the figures for `Cc1cc(-c2c(-c3ccccc3)nc(N)n3c(=O)n(C4Cc5ccc(N)cc5C4)nc23)cc(C)n1` (centres unmarked) [Example 1-104, 5-amino-2-(5-aminoindan-2-yl)-8-(2,6-dimethyl-4-pyridyl)-7-phenyl-[1,2,4]triazolo[4,3-c]pyrimidin-3-one] were 100 nM and 2 nM.
The corresponding values for `Cc1cc(-c2c(-c3ccccc3)nc(N)n3c(=O)[nH]nc23)cc(C)n1` [Example 2-1, 5-amino-8-(2,6-dimethyl-4-pyridyl)-7-phenyl-2H-[1,2,4]triazolo[4,3-c]pyrimidin-3-one] are 79.4 nM and 5.01 nM.
The corresponding values for `Cc1cc(-c2c(-c3ccccc3)nc(N)n3c(=O)n(C)nc23)cc(C)n1` [Example 2-2, 5-amino-8-(2,6-dimethyl-4-pyridyl)-2-methyl-7-phenyl-[1,2,4]triazolo[4,3-c]pyrimidin-3-one] are 200 nM and 5.01 nM.
For `CCn1nc2c(-c3cc(C)nc(C)c3)c(-c3ccccc3)nc(N)n2c1=O` [Example 2-3, 5-amino-8-(2,6-dimethyl-4-pyridyl)-2-ethyl-7-phenyl-[1,2,4]triazolo[4,3-c]pyrimidin-3-one], the Ki in assay [1] is 631 nM; in assay [2], 20 nM.
For `Cc1cc(-c2c(-c3ccccc3)nc(N)n3c(=O)n(CCC(C)C)nc23)cc(C)n1` [Example 2-5, 5-amino-8-(2,6-dimethyl-4-pyridyl)-2-isopentyl-7-phenyl-[1,2,4]triazolo[4,3-c]pyrimidin-3-one], the Ki is 39.8 nM in assay [1] and 0.794 nM in assay [2].
`Cc1cc(-c2c(-c3ccccc3)nc(N)n3c(=O)n(CCO)nc23)cc(C)n1` [Example 2-7, 5-amino-8-(2,6-dimethyl-4-pyridyl)-2-(2-hydroxyethyl)-7-phenyl-[1,2,4]triazolo[4,3-c]pyrimidin-3-one]: the Ki in assay [1] is 1000 nM; in assay [2] it was 100 nM.
On to `Cc1cc(-c2c(-c3ccccc3)nc(N)n3c(=O)n(CCCF)nc23)cc(C)n1` [Example 2-8, 5-amino-8-(2,6-dimethyl-4-pyridyl)-2-(3-fluoropropyl)-7-phenyl-[1,2,4]triazolo[4,3-c]pyrimidin-3-one], for which the figures for the Ki in assay [1] and in assay [2] were 316 nM and 1.58 nM, respectively.
The corresponding values for `Cc1cc(-c2c(-c3ccccc3)nc(N)n3c(=O)n(CCOS(C)(=O)=O)nc23)cc(C)n1` [Example 2-9, 2-[5-amino-8-(2,6-dimethyl-4-pyridyl)-3-oxo-7-phenyl-[1,2,4]triazolo[4,3-c]pyrimidin-2-yl]ethyl methanesulfonate] are 631 nM and 20 nM.
The corresponding values for `Cc1cc(-c2c(-c3ccccc3)nc(N)n3c(=O)n(CCC#N)nc23)cc(C)n1` [Example 2-11, 3-[5-amino-8-(2,6-dimethyl-4-pyridyl)-3-oxo-7-phenyl-[1,2,4]triazolo[4,3-c]pyrimidin-2-yl]propanenitrile] are 794 nM and 15.8 nM.
The corresponding values for `CCOC(=O)NCCn1nc2c(-c3cc(C)nc(C)c3)c(-c3ccccc3)nc(N)n2c1=O` [Example 2-12, ethyl N-[2-[5-amino-8-(2,6-dimethyl-4-pyridyl)-3-oxo-7-phenyl-[1,2,4]triazolo[4,3-c]pyrimidin-2-yl]ethyl]carbamate] are 501 nM and 10 nM.
With `Cc1cc(-c2c(-c3ccccc3)nc(N)n3c(=O)n(CCNC(=O)OC(C)(C)C)nc23)cc(C)n1` [Example 2-14, tert-butyl N-[2-[5-amino-8-(2,6-dimethyl-4-pyridyl)-3-oxo-7-phenyl-[1,2,4]triazolo[4,3-c]pyrimidin-2-yl]ethyl]carbamate], the values for the Ki in assay [1] and in assay [2] were 794 nM and 100 nM, respectively.
For the compound `COC(=O)CCn1nc2c(-c3cc(C)nc(C)c3)c(-c3ccccc3)nc(N)n2c1=O` [Example 2-15, methyl 3-[5-amino-8-(2,6-dimethyl-4-pyridyl)-3-oxo-7-phenyl-[1,2,4]triazolo[4,3-c]pyrimidin-2-yl]propanoate], the Ki was 501 nM in assay [1] and 5.01 nM in assay [2].
As for `Cc1cc(-c2c(-c3ccccc3)nc(N)n3c(=O)n(CCC(F)F)nc23)cc(C)n1` [Example 2-17, 5-amino-2-(3,3-difluoropropyl)-8-(2,6-dimethyl-4-pyridyl)-7-phenyl-[1,2,4]triazolo[4,3-c]pyrimidin-3-one], the results for the Ki in assay [1] and in assay [2] were 1000 nM and 2 nM, respectively.
As for `Cc1cc(-c2c(-c3ccccc3)nc(N)n3c(=O)n(CCN(C)C4CC4)nc23)cc(C)n1` [Example 2-19, 5-amino-2-[2-[cyclopropyl(methyl)amino]ethyl]-8-(2,6-dimethyl-4-pyridyl)-7-phenyl-[1,2,4]triazolo[4,3-c]pyrimidin-3-one], the Ki was 398 nM in assay [1] and 3.98 nM in assay [2].
Take `CCCn1nc2c(-c3cc(C)nc(C)c3)c(-c3ccccc3)nc(N)n2c1=O` [Example 2-20, 5-amino-8-(2,6-dimethyl-4-pyridyl)-7-phenyl-2-propyl-[1,2,4]triazolo[4,3-c]pyrimidin-3-one]: the Ki in assay [1] is 501 nM; in assay [2] it was 3.98 nM.
For the compound `Cc1cc(-c2c(-c3ccccc3)nc(N)n3c(=O)n(CC(C)C)nc23)cc(C)n1` [Example 2-21, 5-amino-8-(2,6-dimethyl-4-pyridyl)-2-isobutyl-7-phenyl-[1,2,4]triazolo[4,3-c]pyrimidin-3-one], the Ki is 1000 nM in assay [1] and 2.51 nM in assay [2].
With `Cc1cc(-c2c(-c3ccccc3)nc(N)n3c(=O)n(CC(N)=O)nc23)cc(C)n1` [Example 2-22, 2-[5-amino-8-(2,6-dimethyl-4-pyridyl)-3-oxo-7-phenyl-[1,2,4]triazolo[4,3-c]pyrimidin-2-yl]acetamide], the Ki in assay [1] was 1000 nM; in assay [2], 200 nM.
For `Cc1cc(-c2c(-c3ccccc3)nc(N)n3c(=O)n(CCC(=O)N(C)C)nc23)cc(C)n1` [Example 2-23, 3-[5-amino-8-(2,6-dimethyl-4-pyridyl)-3-oxo-7-phenyl-[1,2,4]triazolo[4,3-c]pyrimidin-2-yl]-N,N-dimethyl-propanamide], the Ki in assay [1] was 1000 nM; in assay [2], 12.6 nM.
